Marks after values point to notes of the source that are not given here. Ends that are not written are not given here.
Assays:
[1] = test system: Versuchsmodell der toxischen Hepatitis; assay: Hepatoprotective activity in the experimental model of toxic hepatitis (TCM); format: in vivo, Ratten der Linie Sprague-Dawley; details: 100 mg/kg, blood; for APh: alkalische Phosphatase
Description: Beispiel 2 Bewertung der hepatoprotektiven Aktivität der erfindungsgemäßen pharmazeutischen Zubereitung bei Verabreichung am Versuchsmodell der toxischen Hepatitis.
Jede Versuchsgruppe zählte 10 Tiere. Die zu untersuchenden Präparate wurden den Ratten in Form von Wasserlösung intragastrisch mit einer atraumatischen Metallsonde eingeführt. Die Referenztiere bekamen Reinwasser verabreicht.
Als Vergleichspräparat wurde bei der Untersuchung der hepatoprotektiven Aktivität das Präparat Silibinin in Kapseln, Fabrikat Rosa-Phytopharm (Bulgarien) verwendet. in der gleichen Menge wie das Volumen der hepatoprotektiven Mittel behandelt. Die hepatoprotektive Aktivität wurde 7 und 14 Tage ab Anfang der Behandlung bewertet. Im Blutserum wurden die Aktivität von Aspartat-Amino-transferase (ASAT), Alanin-Aminotransferase (ALT), alkalische Phosphatase sowie der Cholesterinspiegel, Triglyzeridespiegel ermittelt. […]
Die statistische Datenverarbeitung wurde anhand der handelsüblichen Software Microsoft Excel durchgeführt. Die Unterschiede zwischen den Stichproben wurden anhand des Student t-Tests bewertet. […] Die Angaben sind in der Tabelle 3 aufgeführt. Tabelle 3. […] Tag […]

[2] = test system: chronischen Duodenalulkus durch Heliobacter pylori; details: peroral, in complex therapy; cited from earlier work
[3] = test system: Modell des Indometacin-Magengeschwürs; assay: Gastroprotective activity in the indometacin gastric ulcer model; format: in vivo, Ratten der Linie Sprague-Dawley
Description: Beispiel 1 Gastroprotektive Aktivität der erfindungsgemäßen pharmazeutischen Zubereitung bei Verabreichung am Modell einer Geschwürbildung.
Die experimentelle Forschung wurde an 50 männlichen Auszucht-Ratten der Linie Sprague-Dawley mit einem Körpergewicht von 180 - 200 g durchgeführt. Vor den Versuchen wurden die Tiere einer 14 Tage langen Quarantäne und Randomisierung unterzogen. Die Tiere wurden unter Vivarium-Bedingungen mit genormter Nahrungsration unterhalten.
Die Tiere wurden in folgende Gruppen aufgeteilt: • Ratten, die mit einem ulzerogenen Präparat (Indometacin) und Kochsalzlösung (2 ml/kg) behandelt wurden; diese Tiere bilden die Vergleichsgruppe (Referenzgruppe); • Ratten, die mit einem ulzerogenen Präparat intragastrisch und einem Vergleichspräparat (Sucralfate in der Dosis von 200,0 mg/kg) behandelt wurden; • Ratten, die mit einem ulzerogenen Präparat intragastrisch und mit der pharmazeutischen Zubereitung (10,0 µg/kg) behandelt wurden; • Ratten, die mit einem ulzerogenen Präparat intragastrisch und mit der pharmazeutischen Zubereitung (0,1 µg/kg) behandelt wurden. physiologischen Lösung verabreicht. Die pharmazeutische Zubereitung und das Vergleichspräparat in den oben genannten Mengen wurden im Laufe von 7 Tagen ab dem Zeitpunkt der Simulation des Indometacin-Magengeschwürs (Heilschema) intragastrisch verabreicht. Die Tiere der Referenzgruppe wurden mit Äquivolumen-Mengen des Lösemittels unter entsprechenden Regimes behandelt.
Das Körpergewicht der Tiere wurde im Zeitablauf ermittelt. 24 Stunden nach Abschluss dieser Behandlung wurden die Tiere der Euthanasie mittels prompter Dekapitation unter Blutabnahme unterzogen. Die Mägen wurden entnommen, an der Minorseite aufgeschnitten und mit kalter Kochsalzlösung gewaschen. Die Destruktionszahl wurde makroskopisch mit Hilfe von einem Binokular unter heller Vertikalbeleuchtung ermittelt. Die Destruktionen wurden je nach ihrem Flächeninhalt wie folgt differenziert: Fein (punktförmig, Größe von unter 1 mm), mittelmäßig (rund und streifenförmig, ab 1 mm) und groß (über 1- 2 mm). Das Vorhandensein von Blut an der Destruktionsunterkante wurde anhand der Peroxydase-Reaktion mit Orthodianisidin-Substrat unter Kennfärben der Schleimhaut mit Methylenblau erkannt. Dabei wurde die hämhaltige Oberfläche braun-schwarz im bläulichen Hintergrund der intakten Schleimhaut gefärbt.
Die Verteilung der Tiere in der Gruppe mit Schleimhautfehlern wurde je nach Grad der Ausprägung der makroskopischen Änderungen erfasst. Der Paul's Index (PI) wurde wie folgt berechnet: durchschnittliche Geschwürmenge x % der Tiere mit Geschwüren / 100 %. Die gastroprotektive Aktivität (GA) wurde als PI / PI Verhältnis zwischen der Referenzgruppe und einer Versuchsgruppe berechnet. Das zu untersuchende Präparat wurde als aktiv beurteilt, wenn GA 2 und mehr betrug.
Die statistische Datenverarbeitung wurde anhand der handelsüblichen Software Microsoft Excel durchgeführt. Die Relevanz der Änderungen wurde unter Anwendung des Student t-Tests berechnet.

[4] = test system: nicht durch Heliobacter pylori assoziierte Magengeschwüren; details: peroral, in complex therapy; cited from earlier work

COc1cc(C2Oc3cc([C@H]4Oc5cc(O)cc(O)c5C(=O)[C@@H]4O)ccc3OC2CO)ccc1O (some centres unmarked) [Silibinin]
APh ([1]; 7. Behandlungstag): 469±30 nMol/s x L | ALAT ([1]; 7. Behandlungstag): 1,56±0,12 mMol/Einheiten x L | ASAT ([1]; 7. Behandlungstag): 1,28±0,15 mMol/Einheiten x L | Cholesterin ([1]; 7. Behandlungstag): 3,60±0,18 mMol/ L | Triglyzeride ([1]; 7. Behandlungstag): 2,44±0,12 mMol/ L | APh ([1]; 14. Behandlungstag): 288±17 nMol/s x L | ALAT ([1]; 14. Behandlungstag): 0,99±0,16 mMol/Einheiten x L | ASAT ([1]; 14. Behandlungstag): 0,75±0,11 mMol/Einheiten x L | Cholesterin ([1]; 14. Behandlungstag): 1,99±0,12 mMol/ L | Triglyzeride ([1]; 14. Behandlungstag): 1,48±0,14 mMol/ L

N-Acetyl- Glukosaminyl- 1 -4-N-Acetylmuramid- L-Alanyl- D-Isoglutamin [Licopid]
Eradikation von Heliobacter pylori und Wiederherstellung der Magenschleimhaut [2]: hohe Effizienz hinsichtlich der Eradikation von Heliobacter pylori

Sucralfate
Anzahl der Geschwüre (X ± m) Fein ([3]; 200 mg/kg intragastric, 7 days): 8±2 | Anzahl der Geschwüre (X ± m) Groß ([3]; 200 mg/kg intragastric, 7 days): 5±2 | Anzahl der Geschwüre (X ± m) Mittelmäßig ([3]; 200 mg/kg intragastric, 7 days): 4±1 | Tiere mit Geschwüren ([3]; 200 mg/kg intragastric, 7 days): 100% | PI ([3]; 200 mg/kg intragastric, 7 days, Paul's Index): 16,9* | GA ([3]; 200 mg/kg intragastric, 7 days, gastroprotektive Aktivität, PI reference / PI test group, active if 2 or more): 2,05 | Durchschnitt (X±m) ([3]; 200 mg/kg intragastric, 7 days, mean number of ulcers): 17±4 | Körpergewichtsverlauf (M±m) ([3]; 200 mg/kg intragastric, 3 Tage): 186 ± 4 g | Körpergewichtsverlauf (M±m) ([3]; 200 mg/kg intragastric, 7 Tage): 169 ± 3 g | Körpergewichtsverlauf (M±m) ([3]; 200 mg/kg intragastric, Hintergrund (baseline)): 198 ± 3 g | Hyperämie der Schleimhaut, Anteil der Tiere ([3]; Sucralfate 200 mg/kg): 40%

TEKRRETVEREKE [Gepon, synthetischer Peptid-Immunmodulator]
Regeneration, Vernarbungszeit, zellgebundene Immunität [4]: Beschleunigung der Regenerationsvorgänge, zur Abkürzung der Vernarbungszeit des ulzerösen Defekts und zur Verbesserung der Kenndaten der zellgebundenen Immunität

Source: EP2767286B1, “ORAL PHARMACEUTICAL COMPOSITION FOR THE TREATMENT OF INFLAMMATORY GASTROINTESTINAL DISEASES” (Obshestvo S Ogranichennoj Otvetstvennostju "CytoNIR", priority 2011, dated 2018)
